The values that follow come from ChEMBL document CHEMBL1128211, “3D-quantitative structure-activity relationships of human immunodeficiency virus type-1 proteinase inhibitors: comparative molecular field analysis of 2-heterosubstituted statine derivatives-implications for the design of novel inhibitors” (J Med Chem, 1995).

In general, Ki refers to a dissociation constant, usually derived from enzyme kinetics or from competition with a known ligand.

This experiment has as its target Human immunodeficiency virus type 1 protease (Human immunodeficiency virus 1, UniProt Q72874). Kind of experiment: Inhibitory activity was determined against HIV type 1 protease.
`CC(C)[C@H](NC(=O)OCc1ccccc1)C(=O)N[C@@H](Cc1ccccc1)[C@@H](O)[C@@H](NCc1ccccc1)C(=O)N[C@H](C(=O)NCc1ccncc1)C(C)C` showed an inhibition constant (Ki) of 0.011 µM.
Turning to `CC(C)(C)[C@H](NC(=O)OCc1ccccc1)C(=O)N[C@@H](Cc1ccccc1)[C@@H](O)[C@@H](NCc1ccccc1)C(=O)N[C@H]1c2ccccc2CC1O` (some centres not stated), the Ki was 0.0145 µM.
Consider `CC(C)[C@H](NC(=O)[C@H](NCc1ccccc1)[C@H](O)[C@H](Cc1ccccc1)NC(=O)[C@H](CC(N)=O)NC(=O)c1ccc2ccccc2n1)C(=O)NCc1ccccc1`, for which the Ki is 0.024 µM.
Next, `COC(=O)CC[C@H](NC(=O)[C@H](NCc1ccc(OC)cc1)[C@H](O)[C@H](Cc1ccccc1)NC(=O)[C@@H](NC(=O)OCc1ccccc1)C(C)C)C(=O)NCc1nc2ccccc2[nH]1`: 0.011 µM; `CC(C)[C@H](NC(=O)OCc1ccccc1)C(=O)N[C@@H](Cc1ccccc1)[C@@H](O)[C@@H](NCc1ccccc1)C(=O)N[C@H](C(=O)OCc1nc2cc(Cl)c(Cl)cc2[nH]1)C(C)C`: 0.0229 µM; `CC(C)[C@H](NC(=O)[C@H](NCc1ccccc1)[C@H](O)[C@H](Cc1ccccc1)NC(=O)[C@@H](N)C(C)(C)C)C(=O)NCc1ccccc1`: 0.0912 µM.
For `CC(C)[C@H](NC(=O)OCc1ccccc1)C(=O)N[C@@H](CCc1ccccc1)[C@@H](O)[C@@H](NCc1ccc(Cl)cc1)C(=O)N[C@H](C(=O)NCc1nc2ccccc2[nH]1)C(C)C`, the Ki was 0.017 µM.
Compound `CC(C)[C@H](NC(=O)OCc1ccccc1)C(=O)N[C@@H](Cc1ccccc1)[C@@H](O)[C@@H](NCc1ccccc1)C(=O)N[C@H](C(=O)NCc1cccnc1)C(C)C` showed a Ki of 0.0135 µM.
In turn, `CC(C)[C@H](NC(=O)[C@H](NCc1ccc(Cl)cc1)[C@H](O)[C@H](Cc1ccccc1)NC(=O)OC(C)(C)C)C(=O)NCc1nc2ccccc2[nH]1` had a Ki of 0.011 µM.
With `CC(C)[C@H](N)C(=O)C[C@@H](Cc1ccccc1)[C@@H](O)[C@H]1CCc2ccc(cc2)OCCOCCOCCCOCCNC(=O)[C@H](C(C)C)CC1=O`, the Ki is 0.00759 µM.
`CC(C)[C@H](NC(=O)[C@H](NCc1ccccc1)[C@H](O)[C@H](Cc1ccccc1)NC(=O)[C@@H](NC(=O)COc1ccccc1)C(C)(C)C)C(=O)NCc1ccccc1` gave a Ki of 0.0158 µM.
For the compound `COc1ccc(CN[C@@H](C(=O)NCc2nc3ccccc3[nH]2)[C@H](O)[C@H](Cc2ccccc2)NC(=O)OC(C)(C)C)cc1`, the Ki was 2.29 µM.
Next, `COc1ccc(CN[C@@H](C(=O)N[C@H](C(=O)NCc2ccc(OC)cc2OC)C(C)C)[C@H](O)[C@H](Cc2ccccc2)NC(=O)[C@@H](NC(=O)OCc2ccccc2)C(C)C)cc1`: 0.00417 µM.
Consider `COc1ccc(CN[C@@H](C(=O)N[C@H](C(=O)NCc2nc3ccccc3[nH]2)C(C)C)[C@H](O)[C@H](Cc2ccccc2)NC(=O)[C@@H](NC(=O)CCc2ccc(C(P(=O)(O)OCc3ccccc3)P(=O)(O)OCc3ccccc3)cc2)C(C)(C)C)cc1` (some centres not stated), for which the Ki is 0.00525 µM.
Regarding `COc1ccc(CN[C@@H](C(=O)N[C@H](C(=O)NCCc2nc3ccccc3[nH]2)C(C)C)[C@H](O)[C@H](Cc2ccccc2)NC(=O)[C@@H](NC(=O)OCc2ccccc2)C(C)C)cc1`, the Ki is 0.00891 µM.
`CC(C)[C@H](NC(=O)[C@H](NCc1ccccc1)[C@H](O)[C@H](Cc1ccccc1)NC(=O)[C@@H](NC(=O)c1nc2c(F)cccc2[nH]1)C(C)(C)C)C(=O)NCc1ccccc1` had a Ki of 0.0269 µM.
On to `COc1ccc(CN[C@@H](C(=O)NCCC(=O)NCc2nc3ccccc3[nH]2)[C@H](O)[C@H](Cc2ccccc2)NC(=O)[C@@H](NC(=O)OCc2ccccc2)C(C)C)cc1`, for which the Ki was 0.0468 µM.
Compound `COc1cccc(CN[C@@H](C(=O)N[C@H](C(=O)NCc2ccccc2)C(C)C)[C@H](O)[C@H](Cc2ccccc2)NC(=O)[C@@H](NC(=O)OCc2ccccc2)C(C)C)c1` showed a Ki of 0.00955 µM.
As for `CC(C)[C@H](NC(=O)[C@H](NCc1ccccc1)[C@H](O)[C@H](Cc1ccccc1)NC(=O)OC(C)(C)C)C(=O)NCc1ccccc1`, the Ki was 0.158 µM.
The result for `COc1ccc(CN[C@@H](C(=O)N[C@H](C(=O)NCCNc2ccc([N+](=O)[O-])cn2)C(C)C)[C@H](O)[C@H](Cc2ccccc2)NC(=O)[C@@H](NC(=O)OCc2ccccc2)C(C)C)cc1` reads 0.00955 µM.
`COc1ccc(CN[C@@H](C(=O)N[C@H](C(=O)NCc2nc3ccccc3[nH]2)C(C)C)[C@H](O)[C@H](Cc2ccccc2)NC(=O)[C@@H](NC(=O)CCc2ccc(O)c(I)c2)C(C)(C)C)cc1` had a Ki of 0.00427 µM.
The compound `COc1ccc(CN[C@@H](C(=O)N[C@H](C(=O)Nc2ccc3ncsc3c2)C(C)C)[C@H](O)[C@H](Cc2ccccc2)NC(=O)[C@@H](NC(=O)OCc2ccccc2)C(C)C)cc1` had a Ki of 0.0158 µM.
On to `COc1ccc(CN[C@@H](C(=O)N[C@H]2c3ccccc3CC2O)[C@H](O)[C@H](Cc2ccccc2)NC(=O)[C@@H](NC(=O)c2cn3cccnc3n2)C(C)(C)C)cc1` (some centres not stated), for which the Ki is 0.0229 µM.
The compound `CC(C)[C@H](N)C(=O)C[C@@H](Cc1ccccc1)[C@@H](O)[C@H]1CCc2ccc(cc2)OCCOCCCOCCNC(=O)[C@H](C(C)C)CC1=O` gave a Ki of 0.00692 µM.
In turn, `CCOc1ccc(CN[C@@H](C(=O)N[C@H]2c3ccccc3CC2O)[C@H](O)[C@H](Cc2ccccc2)NC(=O)OC(C)(C)C)cc1` (some centres not stated) gave a Ki of 0.0912 µM.
On to `COc1ccc(CN[C@@H](C(=O)N[C@H](C(=O)NCCc2ccc(S(N)(=O)=O)cc2)C(C)C)[C@H](O)[C@H](Cc2ccccc2)NC(=O)[C@@H](NC(=O)OCc2ccccc2)C(C)C)cc1`, for which the affinity corresponds to a Ki of 0.0141 µM.
`COc1ccc(CN[C@@H](C(=O)N[C@H](C(=O)Nc2nc3ccccc3s2)C(C)C)[C@H](O)[C@H](Cc2ccccc2)NC(=O)[C@@H](NC(=O)OCc2ccccc2)C(C)C)cc1` gave a Ki of 0.0105 µM.
`CC(C)(C)OC(=O)N[C@@H](Cc1ccccc1)[C@@H](O)[C@@H](NCc1ccc(CNC(=O)CCc2nc3ccccc3[nH]2)cc1)C(=O)NCc1ccccc1` gave a Ki of 0.676 µM.
`CC(C)[C@H](NC(=O)OCc1ccccc1)C(=O)N[C@@H](Cc1ccccc1)[C@@H](O)[C@@H](NC1CCC(O)CC1)C(=O)N[C@H](C(=O)NCc1ccccc1)C(C)C` (stereo in doubt; 282808) showed a Ki of 1.7 µM.
Turning to `CC(C)(C)[C@H](NC(=O)OCc1ccccc1)C(=O)N[C@@H](Cc1ccccc1)[C@@H](O)[C@@H](NCc1ccc(OCCN2CCOCC2)cc1)C(=O)N[C@H](CO)c1ccccc1` (stereo in doubt; 283267), the inhibitory constant (Ki) is 0.129 µM.
In turn, `CC(C)(C)[C@H](NC(=O)OCc1ccccc1)C(=O)N[C@@H](Cc1ccccc1)[C@@H](O)[C@@H](NCc1ccc(OCCN2CCOCC2)cc1)C(=O)N[C@H](CO)c1ccccc1` (stereo in doubt; 283268) had a Ki of 0.1 µM.
Compound `CC(C)[C@H](NC(=O)OCc1ccccc1)C(=O)N[C@@H](Cc1ccccc1)[C@@H](O)[C@@H](NC1CCC(O)CC1)C(=O)N[C@H](C(=O)NCc1ccccc1)C(C)C` (stereo in doubt; c) gave a Ki of 1.41 µM.
